In patent US8431581B2, “Imidazopyrimidines and uses thereof” (priority 2008, dated 2013):

Test system: HIV-1 reporter virus, integrase Q148H/G140S (QHGS)
Assay: Luciferase reporter virus infectivity assay, QHGS mutant
Format: cell-based
Conditions: 293T cells, Q148H/G140S reporter virus, Table 3; read-out: EC50 against the QHGS mutant
Text: Infectivity assays using reporter viruses derived from lentiviral vectors capable of a single round of infection were used to determine the activity (EC50) of compounds. The DNA used to generate viruses for infection was the full-length HIV-1 genome which had been envelope-deleted. In addition, a reporter gene (the firefly luciferase gene from Photinus pyralis) was cloned into the nef region of the HIV backbone for ease of assay readout. […]. Culture supernatants containing VSV-G pseudotyped virions were harvested 64 h post transfection, clarified by centrifugation to remove cell debris, and frozen at −70° C. until use.
HIV integrase was mutated within a shuttle vector (pGEM) containing the majority of the HIV-1 gag and pol sequence using site-directed mutagenesis to generate sequences that are known to confer resistance to published integrase inhibitors. These include but are not limited to mutations such as Q148H/G140S (in tables 2 and 3 # QHGS), N155H/E92Q (in table 2 # NHEQ), F121Y/T124K (in table 2 FYTK), Y143R (in table 2 # Y143R) and the triple mutant Q148K/G140A/E138A. (in table 2 # QKGAEA). The mutated integrase coding region within the shuttle vector was sequence verified, and then exchanged for the wild-type (WT) coding sequence in the reporter virus DNA backbone.
293T cells were plated out at 12000 cells per well in CellView 96-well cell culture plates (Invitrogen) 16 h prior to compound addition. Compounds were preincubated with cells for 4 h at 37° C. prior to the addition of virus sufficient to generate approximately 10000 Luciferase light units (as measured by the Victor Wallace luminometer) upon assaying using the Bright-Glo™ reagent (Promega) according to the manufacturer's instructions at 48 h post infection.

| Compound | EC50 |
| --- | --- |
| 6-Benzyloxy-1-[2-(2,6-dimethyl-morpholin-4-yl)-2-oxo-ethyl]-7-[5-(4-fluoro-2-methylsulfanyl-benzyl)-thiazol-2-yl]-1H-imidazo[1,2-a]pyrimidin-5-one [Example 168] | 500 to 1000 nM |

Same assay, conditions: Human immunodeficiency virus 1, HEK-293T, read-out: EC50 against the QHGS mutant

| Compound | EC50 |
| --- | --- |
| COC(=O)c1cc(F)ccc1Cc1cnc(-c2nc3n(CC(=O)N4C[C@H](C)O[C@@H](C)C4)ccn3c(=O)c2O)s1 (stereo in doubt) [Example 58, 2-(2-{1-[2-(2,6-Dimethyl-morpholin-4-yl)-2-oxo-ethyl]-6-hydroxy-5-oxo-1,5-dihydro-imidazo[1,2-a]pyrimidin-7-yl}-thiazol-5-ylmethyl)-5-fluoro-benzoic acid methyl ester] | 500 to 1000 nM |
| C[C@H]1CN(C(=O)Cn2ccn3c(=O)c(O)c(-c4ncc(Cc5ccc(F)cc5S(=O)(=O)N(C)C)s4)nc23)C[C@H](C)O1 (stereo in doubt) [Example 104, 2-(2-{1-[2-(2,6-Dimethyl-morpholin-4-yl)-2-oxo-ethyl]-6-hydroxy-5-oxo-1,5-dihydro-imidazo[1,2-a]pyrimidin-7-yl}-thiazol-5-ylmethyl)-5-fluoro-N,N-dimethyl-benzenesulfonamide] | < 500 nM |
| C[C@@H]1CN(C(=O)Cn2ccn3c(=O)c(O)c(-c4ncc(Cc5ccc(F)cc5S(C)(=O)=O)s4)nc23)C[C@@H](C)O1 (stereo in doubt) [Example 138, 1-[2-(2,6-Dimethyl-morpholin-4-yl)-2-oxo-ethyl]-7-[5-(4-fluoro-2-methanesulfonyl-benzyl)-thiazol-2-yl]-6-hydroxy-1H-imidazo[1,2-a]pyrimidin-5-one] | 500 to 1000 nM |
| C[C@@H]1C[C@@H](C)CN(C(=O)Cn2ccn3c(=O)c(O)c(-c4ncc(Cc5ccc(F)cc5)s4)nc23)C1 (stereo in doubt) [Example 180, 1-[2-(3,5-Dimethyl-piperidin-1-yl)-2-oxo-ethyl]-7-[5-(4-fluoro-benzyl)-thiazol-2-yl]-6-hydroxy-1H-imidazo[1,2-a]pyrimidin-5-one] | 500 to 1000 nM |
| C[C@H]1CN(C(=O)Cn2cc(N3CCCS3(=O)=O)n3c(=O)c(O)c(-c4ncc(Cc5ccc(F)cc5)s4)nc23)C[C@H](C)O1 [Example 75, 1-[2-(2,6-Dimethyl-morpholin-4-yl)-2-oxo-ethyl]-3-(1,1-dioxo-1l6-isothiazolidin-2-yl)-7-[5-(4-fluoro-benzyl)-thiazol-2-yl]-6-hydroxy-1H-imidazo[1,2-a]pyrimidin-5-one] | 500 to 1000 nM |
| CC1CCCCN1C(=O)Cn1ccn2c(=O)c(O)c(-c3ncc(Cc4ccc(F)cc4)s3)nc12 (stereo not shown) [Example 126, 7-(5-(4-fluorobenzyl)thiazol-2-yl)-6-hydroxy-1-(2-(2-methylpiperidin-1-yl)-2-oxoethyl)imidazo[1,2-a]pyrimidin-5(1H)-one] | 500 to 1000 nM |
| CC1CCN(C(=O)Cn2ccn3c(=O)c(O)c(-c4ncc(Cc5ccc(F)cc5)s4)nc23)CC1 [Example 157, 7-[5-(4-Fluoro-benzyl)-thiazol-2-yl]-6-hydroxy-1-[2-(4-methyl-piperidin-1-yl)-2-oxo-ethyl]-1H-imidazo[1,2-a]pyrimidin-5-one] | 500 to 1000 nM |
| O=C(NCc1ccc(Cl)c(Cl)c1)c1nc2n(CC(=O)N3CCCCC3)cc(CN3CCOCC3)n2c(=O)c1O [Example 181, 6-Hydroxy-3-morpholin-4-ylmethyl-5-oxo-1-(2-oxo-2-piperidin-1-yl-ethyl)-1,5-dihydro-imidazo[1,2-a]pyrimidine-7-carboxylic acid 3,4-dichloro-benzylamide] | 500 to 1000 nM |
| C[C@H]1CN(C(=O)Cn2ccn3c(=O)c(O)c(-c4ncc(Cc5ccc(F)cc5)s4)nc23)C[C@H](C)O1 [Example 182, 1-[2-((2S,6S)-2,6-Dimethyl-morpholin-4-yl)-2-oxo-ethyl]-7-[5-(4-fluoro-benzyl)-thiazol-2-yl]-6-hydroxy-1H-imidazo[1,2-a]pyrimidin-5-one] | < 500 nM |
| CN1CCC(n2ccn3c(=O)c(O)c(-c4ncc(Cc5ccc(F)cc5)s4)nc23)C1=O (stereo not shown) [Example 183, 7-[5-(4-Fluoro-benzyl)-thiazol-2-yl]-6-hydroxy-1-(1-methyl-2-oxo-pyrrolidin-3-yl)-1H-imidazo[1,2-a]pyrimidin-5-one] | 500 to 1000 nM |
| CC1CN(C(=O)C(C)n2ccn3c(=O)c(O)c(-c4ncc(Cc5ccc(F)cc5)s4)nc23)CC(C)O1 (stereo not shown) [Example 184, 1-[2-(2,6-Dimethyl-morpholin-4-yl)-1-methyl-2-oxo-ethyl]-7-[5-(4-fluoro-benzyl)-thiazol-2-yl]-6-hydroxy-1H-imidazo[1,2-a]pyrimidin-5-one] | 1000 to 10000 nM |
| O=C(Cn1ccn2c(=O)c(O)c(-c3ncc(Cc4ccc(F)cc4)s3)nc12)N1CC2CCC1C2 (stereo not shown) [Example 185, 1-[2-(2-Aza-bicyclo[2.2.1]hept-2-yl)-2-oxo-ethyl]-7-[5-(4-fluoro-benzyl)-thiazol-2-yl]-6-hydroxy-1H-imidazo[1,2-a]pyrimidin-5-one] | 1000 to 10000 nM |
| C[C@@H]1CN(C(=O)Cn2cc(N3CCCS3(=O)=O)n3c(=O)c(O)c(C(=O)NCc4ccc(F)cc4S(=O)(=O)N(C)C)nc23)C[C@@H](C)O1 [Example 186, 1-[2-((2R,6R)-2,6-Dimethyl-morpholin-4-yl)-2-oxo-ethyl]-3-(1,1-dioxo-1lambda*6*-isothiazolidin-2-yl)-6-hydroxy-5-oxo-1,5-dihydro-imidazo[1,2-a]pyrimidine-7-carboxylic acid 2-dimethylsulfamoyl-4-fluoro-benzylamide] | < 500 nM |
| CC1CC(C)CN(C(=O)Cn2cc(N3CCCS3(=O)=O)n3c(=O)c(O)c(C(=O)NCc4ccc(F)cc4S(=O)(=O)N(C)C)nc23)C1 (stereo not shown) [Example 187, 1-[2-(3,5-Dimethyl-piperidin-1-yl)-2-oxo-ethyl]-3-(1,1-dioxo-1lambda*6*-isothiazolidin-2-yl)-6-hydroxy-5-oxo-1,5-dihydro-imidazo[1,2-a]pyrimidine-7-carboxylic acid 2-dimethylsulfamoyl-4-fluoro-benzylamide] | < 500 nM |
| CN(C)S(=O)(=O)c1cc(F)ccc1CNC(=O)c1nc2n(CC(=O)N3CCCCC3)cc(N3CCCS3(=O)=O)n2c(=O)c1O [Example 188, 3-(1,1-Dioxo-1lambda*6*-isothiazolidin-2-yl)-6-hydroxy-5-oxo-1-(2-oxo-2-piperidin-1-yl-ethyl)-1,5-dihydro-imidazo[1,2-a]pyrimidine-7-carboxylic acid 2-dimethylsulfamoyl-4-fluoro-benzylamide] | < 500 nM |
| CC1CCCCN1C(=O)Cn1cc(N2CCCS2(=O)=O)n2c(=O)c(O)c(C(=O)NCc3ccc(F)cc3S(=O)(=O)N(C)C)nc12 (stereo not shown) [Example 189, 3-(1,1-Dioxo-1lambda*6*-isothiazolidin-2-yl)-6-hydroxy-1-[2-(2-methyl-piperidin-1-yl)-2-oxo-ethyl]-5-oxo-1,5-dihydro-imidazo[1,2-a]pyrimidine-7-carboxylic acid 2-dimethylsulfamoyl-4-fluoro-benzylamide] | 500 to 1000 nM |
| CC1CC(C)CN(C(=O)Cn2cc(N3CCCS3(=O)=O)n3c(=O)c(O)c(C(=O)NCc4ccc(Cl)c(Cl)c4)nc23)C1 (stereo not shown) [Example 190, 1-[2-(3,5-Dimethyl-piperidin-1-yl)-2-oxo-ethyl]-3-(1,1-dioxo-1lambda*6*-isothiazolidin-2-yl)-6-hydroxy-5-oxo-1,5-dihydro-imidazo[1,2-a]pyrimidine-7-carboxylic acid 3,4-dichloro-benzylamide] | 500 to 1000 nM |
| CSCc1cn(CC(=O)N2CC(C)CC(C)C2)c2nc(C(=O)NCc3ccc(Cl)c(Cl)c3)c(O)c(=O)n12 (stereo not shown) [Example 191, 1-[2-(3,5-Dimethyl-piperidin-1-yl)-2-oxo-ethyl]-6-hydroxy-3-methylsulfanylmethyl-5-oxo-1,5-dihydro-imidazo[1,2-a]pyrimidine-7-carboxylic acid 3,4-dichloro-benzylamide] | 1000 to 10000 nM |
| CSCc1cn(CC(=O)N2CC(C)CC(C)C2)c2nc(C(=O)NCc3ccc(F)cc3S(=O)(=O)N(C)C)c(O)c(=O)n12 (stereo not shown) [Example 192, 1-[2-(3,5-Dimethyl-piperidin-1-yl)-2-oxo-ethyl]-6-hydroxy-3-methylsulfanylmethyl-5-oxo-1,5-dihydro-imidazo[1,2-a]pyrimidine-7-carboxylic acid 2-dimethylsulfamoyl-4-fluoro-benzylamide] | < 500 nM |
| CC1CC(C)CN(C(=O)Cn2cc(CS(C)(=O)=O)n3c(=O)c(O)c(C(=O)NCc4ccc(Cl)c(Cl)c4)nc23)C1 (stereo not shown) [Example 193, 1-[2-(3,5-Dimethyl-piperidin-1-yl)-2-oxo-ethyl]-6-hydroxy-3-methanesulfonylmethyl-5-oxo-1,5-dihydro-imidazo[1,2-a]pyrimidine-7-carboxylic acid 3,4-dichloro-benzylamide] | < 500 nM |
| CC1CC(C)CN(C(=O)Cn2cc(CS(C)(=O)=O)n3c(=O)c(O)c(C(=O)NCc4ccc(F)cc4S(=O)(=O)N(C)C)nc23)C1 (stereo not shown) [Example 194, 1-[2-(3,5-Dimethyl-piperidin-1-yl)-2-oxo-ethyl]-6-hydroxy-3-methanesulfonylmethyl-5-oxo-1,5-dihydro-imidazo[1,2-a]pyrimidine-7-carboxylic acid 2-dimethylsulfamoyl-4-fluoro-benzylamide] | < 500 nM |
